Data reported in PubChem BioAssay AID248 (DTP/NCI, 2004).
Where “and” joins values, the source holds several entries; their conditions need not be identical. Equal entries are not always repeated. Toxic doses and inconclusive results are not listed. Cut-off read from the data, not from the text of the source: active = T/C of 150% or more; inactive = T/C below 125%.

Test system: L1210 leukemia ip in BDF1 mice, survival T/C
Test: NCI In Vivo Anticancer Drug Screen. Data for tumor model L1210 Leukemia (intraperitoneal) in B6D2F1 (BDF1) mice
Conditions: endpoint: mean survival time, higher = longer survival
Procedure, shortened: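 Survival endpoint. Drug-treated group vs vehicle group, expressed as T divided by C. Tumor passaged by transplantation.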

[1] = dose: 100.0 mg/kg/injection, schedule: Q01DX001 (ip), vehicle: saline
[2] = dose: 200.0 mg/kg/injection, schedule: Q01DX001 (ip), vehicle: saline
[3] = dose: 100.0 mg/kg/injection, schedule: Q01DX009 (ip), vehicle: saline with Tween-80
[4] = dose: 50.0 mg/kg/injection, schedule: Q01DX001 (ip), vehicle: saline
[5] = dose: 25.0 mg/kg/injection, schedule: Q01DX009 (ip), vehicle: Klucel (hydroxypropylcellulose) (HPC)
[6] = dose: 25.0 mg/kg/injection, schedule: Q04DX003 (ip), vehicle: Klucel (hydroxypropylcellulose) (HPC)
[7] = dose: 50.0 mg/kg/injection, schedule: Q01DX009 (ip), vehicle: Klucel (hydroxypropylcellulose) (HPC)
[8] = dose: 50.0 mg/kg/injection, schedule: Q04DX003 (ip), vehicle: Klucel (hydroxypropylcellulose) (HPC)
[9] = dose: 100.0 mg/kg/injection, schedule: Q04DX003 (ip), vehicle: Klucel (hydroxypropylcellulose) (HPC)

Measured: T/C

CCCCCCCCCCCCCCCCCCNC(=O)NCCN(C)c1ccccc1
inactive: dose: 100.0 mg/kg/injection, schedule: Q01DX009 (ip), vehicle: carboxymethylcellulose (CMC) 87 % of control and 91 % of control | dose: 100.0 mg/kg/injection, schedule: Q04DX002 (ip), vehicle: Klucel (hydroxypropylcellulose) (HPC) 108 % of control | dose: 100.0 mg/kg/injection, schedule: Q04DX002 (ip), vehicle: carboxymethylcellulose (CMC) 95 % of control and 97 % of control | dose: 100.0 mg/kg/injection, schedule: Q04DX003 (ip), vehicle: carboxymethylcellulose (CMC) 95 % of control | dose: 200.0 mg/kg/injection, schedule: Q01DX009 (ip), vehicle: carboxymethylcellulose (CMC) 90 % of control | dose: 200.0 mg/kg/injection, schedule: Q04DX002 (ip), vehicle: Klucel (hydroxypropylcellulose) (HPC) 112 % of control | dose: 200.0 mg/kg/injection, schedule: Q04DX002 (ip), vehicle: carboxymethylcellulose (CMC) 93 % of control and 95 % of control | dose: 200.0 mg/kg/injection, schedule: Q04DX003 (ip), vehicle: carboxymethylcellulose (CMC) 104 % of control | dose: 400.0 mg/kg/injection, schedule: Q04DX002 (ip), vehicle: Klucel (hydroxypropylcellulose) (HPC) 102 % of control | dose: 400.0 mg/kg/injection, schedule: Q04DX002 (ip), vehicle: carboxymethylcellulose (CMC) 95 % of control and 90 % of control | dose: 400.0 mg/kg/injection, schedule: Q04DX003 (ip), vehicle: carboxymethylcellulose (CMC) 86 % of control

COc1ccc([N+](=O)[O-])cc1/C=C/C=O
inactive: [1] 100 % of control | [2] 92 % of control | dose: 400.0 mg/kg/injection, schedule: Q01DX001 (ip), vehicle: saline 100 % of control

C[n+]1ccccc1CCC(=O)Nc1ccccc1
inactive: [3] 87 % of control

CC(C)CC(N)C(=O)NCCCCCCNCCCCCCNC(=O)C(N)CC(C)C (stereo not drawn)
inactive: [4] 103 % of control | [1] 105 % of control | [2] 102 % of control

CCCCNC(C)[C@]1(O)Cc2c(O)c3c(c(O)c2[C@@H](OC2CC(N)C(O)C(C)O2)C1)C(=O)c1c(OC)cccc1C3=O (stereo partly drawn)
inactive: dose: 1.56 mg/kg/injection, schedule: Q01DX009 (ip), vehicle: water 104 % of control | dose: 3.13 mg/kg/injection, schedule: Q01DX009 (ip), vehicle: water 119 % of control | dose: 6.25 mg/kg/injection, schedule: Q01DX009 (ip), vehicle: water 117 % of control

CCSCC1OC(n2cnc3c(N)nc(F)nc32)C(O)C1O (stereo not drawn)
inactive: dose: 25.0 mg/kg/injection, schedule: Q01DX001 (ip), vehicle: Klucel (hydroxypropylcellulose) (HPC) 98 % of control | [5] 98 % of control | [6] 97 % of control | dose: 50.0 mg/kg/injection, schedule: Q01DX001 (ip), vehicle: Klucel (hydroxypropylcellulose) (HPC) 104 % of control | [7] 96 % of control | [8] 103 % of control | dose: 100.0 mg/kg/injection, schedule: Q01DX001 (ip), vehicle: Klucel (hydroxypropylcellulose) (HPC) 97 % of control and 102 % of control | [9] 92 % of control | dose: 200.0 mg/kg/injection, schedule: Q01DX001 (ip), vehicle: Klucel (hydroxypropylcellulose) (HPC) 86 % of control

CCOC(=O)C(=Cc1ccc(C=C(C(=O)OCC)C(=O)OCC)cc1)C(=O)OCC
inactive: [8] 100 % of control | [9] 100 % of control | dose: 200.0 mg/kg/injection, schedule: Q04DX003 (ip), vehicle: Klucel (hydroxypropylcellulose) (HPC) 94 % of control

Cc1ccc(/C([O-])=C(\C(=S)Nc2cccc(Cl)c2)[n+]2ccccc2)cc1
inactive: dose: 100.0 mg/kg/injection, schedule: Q01DX009 (ip), vehicle: Klucel (hydroxypropylcellulose) (HPC) 104 % of control | dose: 200.0 mg/kg/injection, schedule: Q01DX009 (ip), vehicle: Klucel (hydroxypropylcellulose) (HPC) 95 % of control | dose: 400.0 mg/kg/injection, schedule: Q01DX009 (ip), vehicle: Klucel (hydroxypropylcellulose) (HPC) 108 % of control

C=C(Cl)CSCCO
inactive: dose: 100.0 mg/kg/injection, schedule: Q04DX003 (ip), vehicle: saline with Tween-80 92 % of control | dose: 200.0 mg/kg/injection, schedule: Q04DX003 (ip), vehicle: saline with Tween-80 97 % of control | dose: 400.0 mg/kg/injection, schedule: Q04DX003 (ip), vehicle: saline with Tween-80 97 % of control

CC(CC(=O)O)C(C(=O)O)C(=O)O (stereo not drawn)
inactive: dose: 25.0 mg/kg/injection, schedule: Q01DX009 (ip), vehicle: water 110 % of control | dose: 50.0 mg/kg/injection, schedule: Q01DX009 (ip), vehicle: water 108 % of control | dose: 100.0 mg/kg/injection, schedule: Q01DX009 (ip), vehicle: water 106 % of control | dose: 200.0 mg/kg/injection, schedule: Q01DX009 (ip), vehicle: water 101 % of control

CCSc1ccc2c(cc1=O)C(N)CCc1cc(OC)c(OC)c(OC)c1-2 (stereo not drawn)
inactive: dose: 12.5 mg/kg/injection, schedule: Q04DX002 (ip), vehicle: saline 107 % of control | dose: 25.0 mg/kg/injection, schedule: Q04DX002 (ip), vehicle: saline 95 % of control | dose: 50.0 mg/kg/injection, schedule: Q04DX002 (ip), vehicle: saline 98 % of control

C(=N\Nc1nnc(N/N=C/C2CCCCC2)c2ccccc12)/C1CCCCC1
inactive: [4] 100 % of control

CCCCCCCCCCCC(=O)NC(=S)NCc1cccnc1
inactive: dose: 100.0 mg/kg/injection, schedule: Q01DX001 (ip), vehicle: saline with Tween-80 92 % of control | [3] 101 % of control and 105 % of control | dose: 100.0 mg/kg/injection, schedule: Q04DX002 (ip), vehicle: saline with Tween-80 98 % of control and 100 % of control | dose: 200.0 mg/kg/injection, schedule: Q01DX001 (ip), vehicle: saline with Tween-80 93 % of control | dose: 200.0 mg/kg/injection, schedule: Q01DX009 (ip), vehicle: saline with Tween-80 99 % of control and 107 % of control | dose: 200.0 mg/kg/injection, schedule: Q04DX002 (ip), vehicle: saline with Tween-80 108 % of control and 112 % of control | dose: 400.0 mg/kg/injection, schedule: Q01DX001 (ip), vehicle: saline with Tween-80 98 % of control | dose: 400.0 mg/kg/injection, schedule: Q01DX009 (ip), vehicle: saline with Tween-80 96 % of control and 108 % of control | dose: 400.0 mg/kg/injection, schedule: Q04DX002 (ip), vehicle: saline with Tween-80 105 % of control

COc1ccc(C)cc1NN
inactive: dose: 25.0 mg/kg/injection, schedule: Q01DX009 (ip), vehicle: saline 101 % of control | dose: 50.0 mg/kg/injection, schedule: Q01DX009 (ip), vehicle: saline 97 % of control | dose: 100.0 mg/kg/injection, schedule: Q04DX003 (ip), vehicle: saline 96 % of control

CC(=O)NCC(=O)c1ccc(S(=O)(=O)c2ccccc2)cc1
inactive: dose: 50.0 mg/kg/injection, schedule: Q01DX001 (ip), vehicle: carboxymethylcellulose (CMC) 104 % of control | dose: 100.0 mg/kg/injection, schedule: Q01DX001 (ip), vehicle: carboxymethylcellulose (CMC) 98 % of control | dose: 200.0 mg/kg/injection, schedule: Q01DX001 (ip), vehicle: carboxymethylcellulose (CMC) 96 % of control | dose: 400.0 mg/kg/injection, schedule: Q01DX001 (ip), vehicle: carboxymethylcellulose (CMC) 98 % of control

CC(C)(C)C1CCC(NC(=O)C(Cl)(Cl)Cl)CC1 (stereo not drawn)
inactive: dose: 6.0 mg/kg/injection, schedule: Q01DX009 (ip), vehicle: Klucel (hydroxypropylcellulose) (HPC) 100 % of control | dose: 12.0 mg/kg/injection, schedule: Q01DX009 (ip), vehicle: Klucel (hydroxypropylcellulose) (HPC) 107 % of control | [5] 96 % of control and 105 % of control | [6] 94 % of control | [7] 86 % of control | [8] 97 % of control | [9] 96 % of control

COCCCNP(=S)(OC)OC
inactive: dose: 100.0 mg/kg/injection, schedule: Q01DX001 (ip), vehicle: other 98 % of control | dose: 100.0 mg/kg/injection, schedule: Q04DX003 (ip), vehicle: other 98 % of control | dose: 200.0 mg/kg/injection, schedule: Q01DX001 (ip), vehicle: other 105 % of control | dose: 200.0 mg/kg/injection, schedule: Q04DX003 (ip), vehicle: other 98 % of control | dose: 400.0 mg/kg/injection, schedule: Q01DX001 (ip), vehicle: other 94 % of control | dose: 400.0 mg/kg/injection, schedule: Q04DX003 (ip), vehicle: other 101 % of control

CCCCCCCCCCCCCC(C)NCc1ccccc1 (stereo not drawn)
inactive: [4] 97 % of control | [1] 88 % of control
